# Measurements from publication PMC2722925 (Biochemistry, 2008).
# “And” between values parts separate entries of the source, which are not always exact repeats. Equal entries are not always repeated. Where two headings read alike, the source gives them in different places.
# Legend:
# [1] = target: T1, EPPasePGM (EPPase PGM domain, residues 69 to 330) (Bombyx mori, UniProt Q7YTB0); assay: Phosphatase activity; conditions: for Dephosphorylation by EPPasePGM (substrate specificity): 50 nM EPPasePGM, 1 mM compound, pH 7.5, pNPP as positive control, data not shown; for Km: substrate of wild-type EPPasePGM; for Km / kcat: pH 7.5, 37 °C; for kcat: substrate turnover by wild-type EPPasePGM, 50 nM enzyme
# T1 sequence (Q7YTB0 69-330 isoform Q7YTB0-1): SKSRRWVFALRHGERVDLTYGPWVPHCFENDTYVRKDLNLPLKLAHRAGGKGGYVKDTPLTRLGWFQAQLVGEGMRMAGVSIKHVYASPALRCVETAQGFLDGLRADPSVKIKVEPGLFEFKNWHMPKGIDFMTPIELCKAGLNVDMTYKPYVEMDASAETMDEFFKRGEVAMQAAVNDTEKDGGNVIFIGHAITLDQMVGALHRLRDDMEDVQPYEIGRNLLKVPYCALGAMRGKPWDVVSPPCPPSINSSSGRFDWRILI
# EPPase [2] = assay: Phosphatase activity of native or recombinant full-length EPPase; assay type: biochemical, Bombyx mori; conditions: E22P versus pTyr-peptide
# EPPase [3] = conditions: native or recombinant full-length EPPase; ref [9]; cited from earlier work
# EPPasePGM = target: T2, EPPasePGM (Bombyx mori, UniProt Q7YTB0); assay: Inhibition of EPPasePGM pNPP hydrolysis; assay type: biochemical
# T2 sequence (Q7YTB0 69-330 isoform Q7YTB0-1): T1 sequence (Q7YTB0 69-330 isoform Q7YTB0-1)
# EPPasePGM K292S [4] = target: T3, EPPasePGM K292S (Bombyx mori, UniProt Q7YTB0, K622S); assay type: biochemical
# T3 sequence (Q7YTB0 399-660 K622S): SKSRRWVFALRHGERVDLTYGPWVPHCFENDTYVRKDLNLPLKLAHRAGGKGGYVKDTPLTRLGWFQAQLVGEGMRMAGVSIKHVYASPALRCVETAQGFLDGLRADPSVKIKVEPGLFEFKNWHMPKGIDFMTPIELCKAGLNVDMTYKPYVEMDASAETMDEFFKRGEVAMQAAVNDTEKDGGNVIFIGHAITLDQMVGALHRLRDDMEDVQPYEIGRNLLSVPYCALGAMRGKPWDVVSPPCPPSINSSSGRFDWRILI
# Sts-1PGM = Sts-1PGM (Mus musculus, UniProt Q8BGG7); assay: Phosphatase activity; assay type: biochemical; conditions: for Km: substrate of Sts-1PGM; for kcat: substrate turnover by Sts-1PGM
# Sequence of Sts-1PGM (Q8BGG7 369-638 limits assumed): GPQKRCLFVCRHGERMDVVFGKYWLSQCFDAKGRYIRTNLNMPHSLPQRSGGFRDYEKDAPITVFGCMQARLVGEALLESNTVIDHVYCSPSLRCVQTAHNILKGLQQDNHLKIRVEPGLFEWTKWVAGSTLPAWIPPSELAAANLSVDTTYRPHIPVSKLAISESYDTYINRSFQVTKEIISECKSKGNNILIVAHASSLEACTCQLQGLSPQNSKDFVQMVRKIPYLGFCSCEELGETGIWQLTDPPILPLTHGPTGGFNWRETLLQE
# EPPasePGM K196S = EPPasePGM K196S (Bombyx mori, UniProt Q7YTB0, K526S); assay type: biochemical
# Sequence of EPPasePGM K196S (Q7YTB0 399-660 K526S): as the sequence (Q7YTB0 399-660 K622S) above, with K128S, S224K counted along it
# EPPasePGM K292S [5] = target: T3, EPPasePGM K292S; assay: biochemical
# EPPasePGM K196D = EPPasePGM K196D (Bombyx mori, UniProt Q7YTB0, K526D); assay: Phosphatase activity of EPPasePGM K196D mutant; assay type: biochemical
# Sequence of EPPasePGM K196D (Q7YTB0 399-660 K526D): as the sequence (Q7YTB0 399-660 K622S) above, with K128D, S224K counted along it
# [6] = IC50, 1 mM pNPP, 50 nM EPPasePGM, 37 °C, pH 7.5
# [7] = IC50, 1 mM pNPP, 50 nM EPPasePGM, 37 °C, text values in mM
compound,measurement,setting,value
O=P(O)(O)Oc1cccc2ccccc12 [1-naphtyl phosphate],Dephosphorylation by EPPasePGM (substrate specificity),[1],failed to dephosphorylate
"C[C@H](C(CCC(C)(C)O)OP(=O)(O)O)[C@H]1CCC2(O)C3=CC(=O)[C@@H]4C[C@@H](O)[C@@H](O)C[C@]4(C)[C@H]3CC[C@]12C (stereo partly drawn) [E22P, ecdysone 22-phosphate]",kcat for E22P relative to pTyr-peptide (times lower),EPPase [2],8
same,Km,EPPase [3],5.9 µM
same,kcat,EPPase [3],0.94 s⁻¹
O=C(O)[C@H](O)[C@@H](O)C(=O)O [L-tartrate],Inhibition of pNPP hydrolysis by EPPasePGM,EPPasePGM; concentrations as high as 100 mM,did not inhibit
O=P(O)(O)O [Phosphate],Ki,EPPasePGM,25800 µM
same,IC50,EPPasePGM; [6],47.1 mM
same,IC50,EPPasePGM; [7],47 ± 11 mM
"C[C@]12C=CC(=O)C=C1CC[C@@H]1[C@@H]2[C@@H](O)C[C@@]2(C)[C@H]1CC[C@]2(O)C(=O)COP(=O)([O-])[O-].[Na+].[Na+] [Prednisolone 21P, prednisolone 21-phosphate disodium salt]",Km,EPPasePGM K292S [4],510 ± 230 µM
same,kcat,EPPasePGM K292S [4],4.2 s⁻¹
same,Km,Sts-1PGM,450 ± 90 µM
same,kcat,Sts-1PGM,0.15 s⁻¹
same,Km,EPPasePGM K196S,1060 ± 240 µM
same,kcat,EPPasePGM K196S,6.1 s⁻¹
same,Km,[1],650 ± 170 µM
same,kcat,[1],5.9 s⁻¹
[O]=[W](=[O])([OH])[OH] [Tungstate],IC50,EPPasePGM,0.052 mM
same,Ki,EPPasePGM,34 µM
same,IC50,EPPasePGM K292S [5],70 µM
[O]=[V]([OH])([OH])[OH] [Vanadate],Ki,EPPasePGM,1900 µM
same,IC50,EPPasePGM; [6],2.91 mM
same,IC50,EPPasePGM; [7],2.9 ± 0.43 mM
O=C(CO)[C@@H](O)[C@H](O)[C@H](O)COP(=O)(O)O [fructose-6-phosphate],Dephosphorylation by EPPasePGM (substrate specificity),[1],failed to dephosphorylate
"O=[N+]([O-])c1ccc(OP(=O)(O)O)cc1 [pNPP, para-nitrophenylphosphate]",Km,EPPasePGM K196D,2500 ± 200 µM
same,kcat,EPPasePGM K196D,2.4 s⁻¹
same,Km,EPPasePGM K292S [4],2400 ± 200 µM
same,kcat,EPPasePGM K292S [4],6.3 s⁻¹
same,Km,Sts-1PGM,500 ± 70 µM
same,kcat,Sts-1PGM,70.1 s⁻¹
same,Km,EPPasePGM K196S,2700 ± 160 µM
same,kcat,EPPasePGM K196S,5.0 s⁻¹
same,Km,EPPase [3],13100 µM
same,kcat,EPPase [3],135 s⁻¹
same,kcat of EPPasePGM relative to Sts-1PGM (fold slower),[1]; pNPP hydrolysis,6
same,kcat/Km of EPPasePGM relative to Sts-1PGM (fold slower),[1]; pNPP hydrolysis,20
same,Km,[1],1900 ± 200 µM
same,kcat,[1],11.7 ± 0.6 s⁻¹ and 11.7 s⁻¹
"C[C@H]1C[C@H]2[C@@H]3CCC4=CC(=O)C=C[C@]4(C)[C@@]3(F)[C@@H](O)C[C@]2(C)[C@@]1(O)C(=O)COP(=O)([O-])[O-].[Na+].[Na+] [β-Methasone 21P, β-methasone 21-phosphate disodium salt]",Km,[1],730 ± 320 µM
same,kcat,[1],10.2 s⁻¹
O=P(O)(O)OC[C@H]1O[C@@H](O)[C@H](O)[C@@H](O)[C@@H]1O [β-glucose-6-phosphate],Dephosphorylation by EPPasePGM (substrate specificity),[1],failed to dephosphorylate
O=P(O)(O)OC(CO)CO [β-phospho-glycerol],Dephosphorylation by EPPasePGM (substrate specificity),[1],failed to dephosphorylate
O=P(O)(O)OC[C@H]1O[C@@H](O)[C@H](O)[C@@H]1O [β-ribose-5-phosphate],Dephosphorylation by EPPasePGM (substrate specificity),[1],failed to dephosphorylate
